According to patent publication US11530181B2, “IL-6 inhibitors and methods of treatment” (University of Florida Research Foundation, Incorporated, priority 2018, dated 2022):

Columns and labels:
STAT4 phosphorylation = assay: Western blot, STAT4 phosphorylation in MCF7; type: cell-based, human; settings: MCF7, pre-treatment 2, 3 and 4 hours
Protocol: FIG. 13. depicts the reduced effect on STAT1, STAT2, STAT4 and STAT6 phosphorylation by LLM418. The MCF7 cells were serum-starved overnight, then treated with LLM4 (15 μM) for 2, 3 and 4 hours. STAT1, STAT2, STAT4 and STAT6 phosphorylation were induced by INF-γ, INF-α and IL-4, respectively. The cells were harvested at 30 minutes and analyzed by western blot assays.
Cells were harvested and lysed in cold radioimmunoprecipitation assay (RIPA) lysis buffer containing proteasome inhibitor cocktail and phosphatase inhibitor cocktail. The protein concentrations were determined using the BCA Protein Assay kit. After adding the loading buffer and boiling at 95° C. for 10 minutes, equivalent amounts of proteins were loaded on and separated by SDS-PAGE, and then were transferred to PVDF membranes. Membranes were probed with primary antibodies (1:1000) against phospho-STAT3 (Tyr705), STAT3, phospho-STAT1 (Tyr701), STAT1, phospho-STAT6 (Tyr 641), STAT6, and GAPDH, respectively, and horseradish peroxidase (HRP)-conjugated secondary antibody (1:10000) (Cell Signaling Technology, Beverly, Mass.). Membranes were analyzed using Enhanced Chemiluminescence Plus reagents and either scanned with the Storm Scanner (Amersham Pharmacia Biotech, Inc., Piscataway, N.J.) or imaged with ChemiDoc MP imaging system (Bio-Rad, Hercules, Calif.). […] The cells were harvested after 30 minutes and analyzed by Western blot.

[1] = test system: MCF7 breast cancer cell line; assay: MTT cell viability assay, MCF7; type: cell-based, human; settings: Homo sapiens; MCF7 (low IL-6), 48 h, 0% FBS medium
Protocol: Human breast cancer cell lines MCF7, MDA-MB-231 and SUM159 were maintained in Dulbecco's modified Eagle medium (DMEM). Human pancreatic cancer cell line BxPC-3 was maintained in RPMI 1640 medium. Human pancreatic cancer cell line Capan-1 was maintained in Iscove's Modified Dulbecco's Medium (IMEM). All media were supplemented with 10% FBS and 1% penicillin/streptomycin, and cells were incubated in a humidified 37° C. incubator with 5% CO2. PE/CA-PJ49 cell line was purchased from external sources and maintained according to manufacturer's protocol.
Cell viability was evaluated by using the MTT assay in triple replicates in one experiment and repeated for three times. Cancer cells were seeded in 96-well plates at a density of 3,000 cells per well. The cells were incubated at 37° C. for a period of 24 hours. […] After incubation for 48 or 72 hours, a stock solution of MTT (0.5 mg/ml) was then added to each well containing the treated cells, followed by incubation at 37° C. for 3 h. After removal of medium, the MTT dye was dissolved with spectrophotometric grade DMSO and the absorbance was read at 570 nm. The IC50 value is determined by interpolation based on the absorbance value halfway between positive and negative controls. […]

SMILES | effect on STAT4 phosphorylation (STAT4 phosphorylation) | IC50 [1]
O=C(Nc1ccccc1-c1ccn[nH]1)c1ccc(OCCN2CCCCC2)cc1 [LLM418, N-(2-(1H-pyrazol-5-yl)phenyl)-4-(2-(piperidin-1-yl)ethoxy)benzamide] | little effect | 
O=C(Nc1cc(F)ccc1-n1cccc1)c1ccc(OCCCN2CCCCC2)cc1 [LLM4, N-(5-fluoro-2-(1H-pyrrol-1-yl)phenyl)-4-(3-(piperidin-1-yl)propoxy)benzamide] |  | 4.51 µM
